In the SangsterLogP compilation:

Assay: not given
Details: pH 3.0
In the case of `CC(=O)Nc1ccc(NN=C(C#N)C#N)cc1`, the logD was 1.83.
`N#CC(C#N)=NNc1ccc(OC(F)(F)F)cc1` showed a logD of 3.68.
`N#CC(C#N)=NNc1ccc(/N=N/c2ccccc2)cc1` gave a logD of 4.25.

Same assay, conditions: pH 7.2
Compound `N#CC(C#N)=NNc1ccc(CCCl)cc1` has a logD of 2.44.

Assay: not given
Details: not given
Compound `COC(=O)CS(=O)c1ccc([N+](=O)[O-])cc1Cl` (stereo not given) has a logP of 1.69.
In the case of `COC(=O)CS(=O)(=O)c1ccccc1[N+](=O)[O-]`, the logP was 0.95.
In the case of `COC(=O)CSc1ccc([N+](=O)[O-])cc1[N+](=O)[O-]`, the logP was 2.03.
Compound `CC(C)OC(=O)CS(=O)(=O)c1ccc([N+](=O)[O-])cc1[N+](=O)[O-]` has a logP of 2.01.

Assay: not given
Details: not given
Remark: another data set of the same source
`COP(N)(=S)Oc1ccccc1C(=O)OC(C)C` (stereo not given) showed a logP of 2.7.
Compound `COc1ccc(C(OC(C)=O)C(Cl)(Cl)Cl)cc1` (stereo not given) has a logP of 3.72.
In the case of `CNC(=O)ON=C(CS(C)=O)C(C)(C)C` (stereo not given), the logP was 2.75.
Compound `CC1(C)[C@H](C(=O)OCc2coc(Cc3ccccc3)c2)[C@@H]1/C=C1/CCSC1=O` has a logP of 4.31.

Assay: method code SF, from PMID: 718082
Details: not given
For `CC(=O)Nc1c(I)c(NC(C)=O)c(I)c(C(=O)O)c1I`, the logP was -1.05.
With `CNC(=O)c1c(I)c(NC(C)=O)c(I)c(OCC2OC(O)C(O)C(O)C2O)c1I` (stereo not given) the logP was -1.26.
`OC[C@H]1O[C@@H](Oc2cc(O[C@@H]3O[C@H](CO)[C@@H](O)[C@H](O)[C@H]3O)c(I)c(O[C@@H]3O[C@H](CO)[C@@H](O)[C@H](O)[C@H]3O)c2I)[C@H](O)[C@@H](O)[C@@H]1O` gave a logP of -2.22.
With `CNC(=O)c1c(I)c(NC(C)=O)c(I)c(C(=O)O)c1I` the logP was -1.15.

Assay: not given
Details: not given
Remark: another data set of the same source
Work on `CCC(C)c1ccc(O)cc1` (stereo not given) yielded a logP of 3.32.
Work on `Cc1cccc(O)c1C` yielded a logP of 2.48.
For `Cc1cc(O)cc(C)c1Cl`, the logP was 3.27.
`CC(C)(C)c1cccc(O)c1` showed a logP of 3.05.

Assay: not given
Details: not given
Remark: another data set of the same source
`CC(=O)OC[C@H]1O[C@@H](n2ccnc2[N+](=O)[O-])[C@H](OC(C)=O)[C@@H](OC(C)=O)[C@@H]1OC(C)=O` showed a logP of 0.52.
In the case of `O=[N+]([O-])c1nccn1[C@@H]1O[C@H](CO)[C@@H](O)[C@H](O)[C@H]1O`, the logP was -1.4.
`CC(=O)OC[C@H]1S[C@@H](n2ccnc2[N+](=O)[O-])[C@H](OC(C)=O)[C@@H](OC(C)=O)[C@@H]1OC(C)=O` showed a logP of 0.63.
Compound `O=[N+]([O-])c1nccn1[C@@H]1S[C@H](CO)[C@@H](O)[C@H](O)[C@H]1O` has a logP of -0.66.

Assay: not given
Details: not given
Remark: another data set of the same source
Work on `CC(N)CCc1ccccc1` (stereo not given) yielded a logP of 2.12.
`CCCCNCc1ccccc1` gave a logP of 2.59.
For `CCNCc1ccccc1`, the logP was 1.82.
For `CC(C)NCc1ccccc1`, the logP was 1.83.

Assay: not given
Details: not given
Remark: another data set of the same source
`O=C(O)CCCCCOC(=O)Oc1ccccc1` gave a logP of 2.56.
With `CCOC(=O)Oc1ccccc1` the logP was 2.18.
Compound `O=C(O)[C@H]1O[C@@H](Oc2ccccc2)[C@H](O)[C@@H](O)[C@@H]1O` has a logP of 0.73.
Work on `CC(C)(C)OC(=O)Oc1ccccc1` yielded a logP of 3.02.

Assay: not given
Details: not given
Remark: another data set of the same source
`CN1CCc2cccc(Cl)c2CC1` gave a logP of 2.92.
In the case of `NC(=O)CCN1CCc2cccc(Cl)c2CC1`, the logP was 1.64.
`NC(=O)NCCN1CCc2cccc(Cl)c2CC1` showed a logP of 2.07.

Assay: method code SF-AS, from DOI: 10.1021/jf950378u
Details: not given
In the case of `O=c1ccc2ccc(O)c(O)c2o1`, the logP was 0.71.
`COc1ccc([C@@H]2CC(=O)c3c(O)cc(O[C@@H]4O[C@H](CO[C@@H]5O[C@@H](C)[C@H](O)[C@@H](O)[C@H]5O)[C@@H](O)[C@H](O)[C@H]4O)cc3O2)cc1O` gave a logP of 0.32.
With `O=C(O)/C=C/c1ccccc1O` the logP was 0.62.
With `Oc1cc(O)c2c(c1)O[C@H](c1ccc(O)c(O)c1)[C@@H](O)C2` the logP was 1.31.

Assay: method code SF-AS, from DOI: 10.1007/bf01648987
Details: not given
`CC(=O)OC(OC(C)=O)c1ccccc1` gave a logP of 1.62.
Work on `CC(=O)N(CCCl)c1ccc(CC(=O)O)cc1` yielded a logP of 1.2.
Compound `CCN(CCOC(C)=O)c1ccccc1` has a logP of 2.04.
`CC(=O)Oc1cccc2ccccc12` gave a logP of 2.78.

Assay: not given
Details: not given
Remark: another data set of the same source
`CSc1nc(NC(C)(C)C)nc(NC(C)(C)C)n1` gave a logP of 4.39.
`CSc1nc(N)nc(NC(C)(C)C)n1` showed a logP of 2.54.
`CSc1nc(NC2CC2)nc(NC(C)(C)C)n1` gave a logP of 3.38.
For `CSc1nc(NCCC=O)nc(NC(C)(C)C)n1`, the logP was 2.92.

Assay: method code SF-AS, from DOI: 10.1002/ddr.430140205
Details: pH 7.4
Work on `O=C1CCC(c2ccncc2)=NN1` yielded a logD of 0.18.
`COc1ccc(CC2CNC(=O)C2)cc1OC` (stereo not given) gave a logD of 0.58.
Work on `O=C1CCC(c2ccc(-n3ccnc3)cc2)=NN1` yielded a logD of 1.
In the case of `CSc1ccc(C(=O)c2[nH]c(=O)[nH]c2C)cc1`, the logD was 1.55.

Assay: method code SF, from DOI: 10.1016/0378-5173(86)90155-9
Details: pH 7.0
Compound `CS(=O)(=O)CCCOc1ccc([N+](=O)[O-])cc1` has a logD of 1.1.
With `NC(=O)CCCCOC(=O)c1ccccc1` the logD was 1.39.
With `NS(=O)(=O)CCCOc1ccc([N+](=O)[O-])cc1` the logD was 0.97.
For `CSCCCOc1ccc([N+](=O)[O-])cc1`, the logD was 3.24.

Assay: method code SF-AS, from DOI: 10.1016/0021-9673(94)89049-8
Details: pH 7.0
With `Nc1nc(F)nc2c1ncn2[C@@H]1O[C@H](CO)[C@@H](O)[C@H]1O` the logD was -0.8.
For `Nc1nc(Cl)nc2c1ncn2C1OC(CO)C(O)C1O` (stereo not given), the logD was -0.37.
With `Nc1ncnc2c1ncn2[C@@H]1O[C@H](CCl)[C@@H](O)[C@H]1O` the logD was -0.06.
With `Nc1nc(Cl)nc2c1ncn2[C@H]1C[C@H](O)[C@@H](CO)O1` the logD was 0.03.

Assay: method code SF-AS, from DOI: 10.1016/0223-5234(93)90135-2
Details: pH 12.2
Work on `CN(C)CCc1ccccn1` yielded a logD of 1.12.
With `NCCc1nc(-c2ccccc2)cs1` the logD was 2.22.
Work on `CNCCc1ccccn1` yielded a logD of 0.68.
With `NCCc1cn2ccccc2n1` the logD was 0.59.

Assay: method code SF-AS, from DOI: 10.1080/00021369.1974.10861343
Details: not given
In the case of `COC(=O)/C=C/Oc1ccccc1`, the logP was 2.68.
For `COC(=O)C=COc1ccccc1Cl`, the logP was 3.02.
For `CCOC(=O)C=COc1ccccc1Cl`, the logP was 3.55.

Same assay, conditions: pH 3.0
In the case of `O=C(O)/C=C/Oc1ccc(Cl)cc1Cl`, the logD was 3.46.

Assay: method code SF-HPLC, from DOI: 10.1021/jm100498u, PMID: 20704351
Details: pH 7.4
`CCCCCC1(CCO)N=N1` gave a logD of 2.55.
`C[C@H](c1ccccc1)n1cncc1C(=O)OCCC1(C)N=N1` showed a logD of 3.6.
For `C[C@H](c1ccccc1)n1cncc1C(=O)OCc1ccc(C2(C(F)(F)F)N=N2)cc1`, the logD was 4.3.
In the case of `C[C@H](c1ccccc1)n1cncc1C(=O)OCc1ccc(C(=O)c2ccccc2)cc1`, the logD was 4.4.

Assay: method code SF-AS, from DOI: 10.1002/jps.2600741028, PMID: 4078715
Details: not given
In the case of `Cc1cccc(C)c1C#[N+][O-]`, the logP was 2.74.
With `Cc1ccc(C=[N+]([O-])c2ccccc2)cc1` the logP was 2.41.
In the case of `CC(C)c1ccc(C=[N+]([O-])c2ccccc2)cc1`, the logP was 3.37.
In the case of `[O-][N+](=Cc1ccccc1)c1ccccc1`, the logP was 1.88.

Assay: method code SF-HPLC, from DOI: 10.1023/a:1016462801968, PMID: 3334410
Details: not given
`COC(=O)OCC(COC(=O)OC)OCn1cnc2c(=O)[nH]c(N)nc21` showed a logP of -0.88.
`CCC(=O)OCC(COC(=O)CC)OCn1cnc2c(=O)[nH]c(N)nc21` gave a logP of -0.14.
In the case of `Nc1nc2c(ncn2COC(CO)CO)c(=O)[nH]1`, the logP was -1.66.
`CCCC(=O)OCC(COC(=O)CCC)OCn1cnc2c(=O)[nH]c(N)nc21` showed a logP of 0.83.

Assay: method code SF-HPLC, from DOI: 10.1016/j.bmcl.2010.02.057, PMID: 20231095
Details: pH 7.4
`CC(OC(=O)c1sc2cc(O)c(O)cc2c1Cl)OC(=O)C(C)C` (stereo not given) showed a logD of 3.02.
Compound `CCCOC(=O)c1sc2cc(O)c(O)cc2c1Cl` has a logD of 2.45.
Work on `COC(=O)c1sc2cc(O)c(O)cc2c1Cl` yielded a logD of 1.51.
`CC(C)C(=O)OCOC(=O)c1sc2cc(O)c(O)cc2c1Cl` gave a logD of 2.91.

Assay: method code SF, from DOI: 10.1111/j.2042-7158.1971.tb08772.x, PMID: 4401532
Details: pH 7.2
In the case of `CC(=O)Nc1ccc(C=O)cc1`, the logD was 1.25.
Compound `CC(=O)Nc1ccc([N+](=O)[O-])cc1` has a logD of 1.66.
For `CC(=O)Nc1ccc(C)cc1`, the logD was 1.4.
`CC(=O)Nc1ccc(I)cc1` showed a logD of 2.46.

Assay: method code SF-AS, from DOI: 10.1111/j.2042-7158.1979.tb13606.x, PMID: 41067
Details: pH 1.2
For `CCOc1ccc(CC(=O)O)cc1`, the logD was 1.95.
In the case of `COc1ccc(CC(=O)O)cc1`, the logD was 1.48.
In the case of `O=C(O)CCc1ccc(O)cc1`, the logD was 1.16.
Compound `COc1ccc(CCCC(=O)O)cc1` has a logD of 2.33.

Assay: method code SF-AS, from DOI: 10.1111/j.1476-5381.1975.tb07619.x, PMID: 1182339
Details: pH 10.0
In the case of `N#Cc1ccc(NC(=O)NC(=N)N)cc1Cl`, the logD was 1.9.
With `N=C(N)NC(=O)Nc1ccc(Cl)cc1` the logD was 1.78.
In the case of `N=C(N)NC(=O)Nc1ccc([N+](=O)[O-])c(Cl)c1`, the logD was 1.79.
In the case of `Cc1cc(NC(=O)NC(=N)N)ccc1Cl`, the logD was 2.19.
